Consider three compounds from US20230303506A1, “COMPOSITIONS AND METHODS FOR THE PREVENTION AND/OR TREATMENT OF MITOCHONDRIAL DISEASE, INCLUDING FRIEDREICH'S ATAXIA” (Stealth BioTherapeutics Inc., priority 2019, published 2023).

“Also recorded” adds a separate entry of the source.

The target in assay [1] is lipoxygenase-15 enzyme (Glycine max (Soybean) (Glycine hispida), UniProt P08170). Description: Lipoxygenase-15 Assay (LO-15 Assay). Particulars: reduced form of compounds.
The test system of assay [2] is HepG2 cells. Nature of the assay: Rotenone Oxygraph Assay (high-resolution respirometry of intact HepG2 cells). It is filed as cell-based, human. Particulars: Table 7; 1 μM rotenone, compound 10 μM. The procedure:
The Oxygraph-2 k (O2k, OROBOROS INSTRUMENTS, Austria) was used for measurements of respiration of intact cells. The respirometry was performed in Dulbecco's Modified Eagle Medium (DMEM) high glucose without supplements. All experiments were performed at 37° C.
HepG2 cells (ATCC collection code HB-8065™) were cultured in 10 cm^2 culture dishes in DMEM high glucose medium supplemented with 10% fetal bovine serum (FBS) and 100 units/mL penicillin and 100 μg/mL streptomycin until approximately 90% confluence was reached. Immediately prior to performing the respirometric assay, the cells were washed with media without FBS, trypsinized and resuspended in DMEM high glucose without FBS.
The final concentration of intact cells in the O2k-chamber was 0.5·10^6/mL. After stabilization of respiration, the Complex I inhibitor, rotenone, at 1 μM final concentration was added to inhibit electron flux via Complex I. Then, compound to be tested was added at 10 μM final concentration, and the change in respiration rate of intact cells was monitored.

The test system of assay [3] is frataxin deficient fibroblasts (GM03665). Description: cells. In kind it is cell-based.
The test system of assay [4] is HepG2 human hepatocarcinoma cells. Description: Rotenone ATP Assay (Complex I Assay). In kind it is cell-based. Particulars: for activity in both the BSO Assay and the Rotenone ATP Assay, in words: BSO Assay and Rotenone ATP Assay taken together; for Complex I by-pass activity / restoring ATP production, in words: summary of rotenone assays. On the procedure:
This assay has been adapted from Haefeli R H, Erb M, Gemperli A C, Robay D, Courdier Fruh I, et al. (2011) NQO1-Dependent Redox Cycling of Idebenone: Effects on Cellular Redox Potential and Energy Levels. PLoS ONE 6(3): e17963. HepG2 human hepatocarcinoma cells were co-incubated with the electron transport chain Complex I toxin rotenone +/− compounds of interest and the corresponding effect on ATP synthesis was measured with a bioluminescent substrate.
In brief, HepG2 cells were plated at 25,000 cells per well in low glucose (1 gram/Liter) DMEM medium+10% fetal calf serum and incubated for 24 hours. The following day, the media was decanted and subsequently replaced with glucose free/serum free DMEM which has been supplemented with 50 micromolar rotenone and compound of interest. Serial dilutions of compound were prepared in 3× dilutions beginning at 25 micromolar. The cells were incubated for 60 minutes in a humidified tissue culture incubator. Following incubation, ATP levels were quantified via bioluminescent assay (Promega […] Glo Assay kit) and readings were captured on a standard microplate reader.
ATP bioluminescence is plotted versus the log of compound of interest and data were used to generate EC50 values. Curve fitting was performed using a sigmoidal dose response curve fit function (GraphPad Prism software).
Robustness of curve fit was assessed as a quality control measure, with an R squared value of at least 0.80 being required for a successful curve fit. Compounds of interest showing an increase in ATP bioluminescence relative to vehicle control were verified in an independent biological replicate of n=3 technical replicates per dose.
This assay is a direct measure of the ability of compounds of interest to restore ATP production under conditions of inhibition of Complex I of the mitochondrial electron transport chain. As the majority of ATP produced via the electron transport chain is thought to derive from Complex I activity, significant impairment in Complex I function has dire biological consequences. Of note, Complex I mutations are thought to drive pathophysiology in multiple mitochondrial diseases, including Leigh syndrome and Leber's Hereditary Optic Neuropathy (LHON), while diminished Complex I activity and the resultant attenuation of ATP production has been shown in neurodegenerative diseases, including Friedreich's Ataxia, Parkinson's Disease and Huntington's Disease.

Assay [5] concerns Nrf-2. Nature of the assay: Nrf-2 Activation Assay (Nrf-2 Assay). In kind it is cell-based, human. Particulars: for activation of Nrf-2 pathway, in words: FIG. 7; for Nrf-2 Assay: Table 7, 1 μM compound, 24 hours, qPCR of Nrf-2 responsive genes. On the procedure:
This assay was developed internally and was designed to determine if the novel test compounds disclosed herein active Nrf-2 and thereby promote resolution of inflammation by the mechanism believed to be responsible for the activity of omaveloxolone.
Briefly, GM03665 Friedreich Ataxia patient fibroblasts were grown in 12 Well Plates (TC Cell+F) (Sarstedt, Numbrecht Germany), at a density of […] in DMEM/F12 (Gibco, ThermoFisher Scientific, Waltham, MA, USA) cell media supplemented with 10% FBS and 1% Pen/Strep. Cells were left to rest overnight at 37° C. in a humidified atmosphere with 5% CO2 to allow attachment of the cells to the culture plate. Before continuing assay visual inspection of each well was done by light microscopy to detect any possible bacterial and fungal contamination. […] After incubation, cell media was removed and total RNA from the cells was isolated using E.Z.N.A.® Total RNA Kit I (Omega Bio-tek, Norcross, Georgia, USA) spin columns, and first-strand cDNA synthesis was carried out using a High Capacity cDNA Reverse Transcription Kit (Applied Biosystems™, Foster City, CA) following the manufacturer's instructions. qPCR analysis of gene expression was performed by mixing SYBR® Green Master Mix (Applied Biosystems™) with synthesized cDNA and forward and reverse primers. […] (60 cycles), and 95° C. for 60 seconds, followed by melt curve analysis at 72-95° C., 0.3° C./sec. The relative expression levels for each gene were calculated with the ΔΔCt method and normalized to the expression of REEP5 and SNRPD3 genes.

The test system of assay [6] is GM03665 cells. Nature of the assay: RSL3 Toxicity Assay (RSL3 Assay). It is filed as cell-based, human. The procedure:
In brief, GM03665 cells (Coriell Institute) were seeded in 96-well plates (Sarstedt) in DMEM cell culture media containing 10% Fetal Bovine serum and 1% Penicillin-Streptomycin (Pen-Strep) antibiotic mix at the amount of 2×10^4/mL (100 μL or 2×10^3 cells per well). Cells were left to rest overnight at 37° C. in a humidified atmosphere with 5% CO2 to allow attachment of the cells to the culture plate. Test compounds were prepared as DMSO stocks (10 mM) and were serially diluted in cell culture media to obtain 2× working solutions. Cell media was discarded and replaced by 50 μL of test compound solutions or cell media with vehicle for control wells. Within 15 minutes, 2× working solution (4 μM) of 1S,3R-RSL3 (CAS #1219810-16-8, Sigma-Aldrich) (diluted from 5 mM DMSO stock in cell culture media) was added. Final reaction volume was 100 μL and final DMSO concentration in reaction was kept below 0.2% (v/v) and equal in all wells. Final RSL3 concentration was 2 μM and test compound final concentrations in reaction were up to 1000 nM. After 24 hours of incubation cell viability was assessed by MTT test. MTT (Sigma-Aldrich) solution 1 mg/mL in 1×PBS (pH=7,4) was prepared 1 hour before the assay and filtered through Filtropur S 0.2 filters (Sarstedt). Cell media with test compounds was discarded and 100 μL of MTT solution was added to cells. The plates were incubated for 2 hours at +37° C. Thereafter, the MTT solution was removed and 100 μL of isopropanol was added to dissolve sediment. Absorption at 570 and 650 nm was measured using Hidex Sense microplate reader.

For `CC1=C(C)C(=O)C(CC[C@](C)(O)CC/C=C(\C)CC/C=C(\C)CCC=C2COC2)=C(C)C1=O` [Compound E, 2-((R,6E,10E)-3-hydroxy-3,7,11-trimethyl-14-(oxetan-3-ylidene)tetradeca-6,10-dien-1-yl)-3,5,6-trimethylcyclohexa-2,5-diene-1,4-dione], the “activity in LO-15 assay, in words” value in assay [1] is given as “outside of the range of the assay”. In assay [2], the “Rotenone Oxygraph Assay % Increase” value is 37.9 +/− 10.7%. In addition, the “activity in BSO assay (protection from BSO induced cell death), in words” value (“activity in BSO assay” below) in assay [3] is “able to prevent ferroptotic cell death; also recorded: active”. Moreover, in assay [4], the “activity in both the BSO Assay and the Rotenone ATP Assay, in words” value is “possess both activities”; the “Complex I by-pass activity / restoring ATP production, in words” value is given as “active”. Also, in assay [5], the “activation of Nrf-2 pathway, in words” value was “do not activate” and the “Nrf-2 Assay” value is reported as “Inactive”. In assay [6], the “activity in RSL3 assay (protection from RSL3 induced ferroptosis), in words” value (shortened to “activity in RSL3 assay”) is on record as “active; also recorded: able to prevent ferroptotic cell death”.
On to `CC1=C(C)C(=O)C(CC[C@](C)(O)CC/C=C(\C)CCC=C(F)F)=C(C)C1=O` [Compound H, (R,E)-2-(11,11-difluoro-3-hydroxy-3,7-dimethylundeca-6,10-dien-1-yl)-3,5,6-trimethylcyclohexa-2,5-diene-1,4-dione], for which, in assay [1], the “activity in LO-15 assay, in words” value is recorded as “active; also recorded: effective inhibitors”. The “Rotenone Oxygraph Assay % Increase” value in assay [2] is 54.3 +/− 13%. The “activity in BSO assay” value in assay [3] was “able to prevent ferroptotic cell death; also recorded: active”. The “Complex I by-pass activity / restoring ATP production, in words” value in assay [4] is listed as “active”. In assay [5], the “activation of Nrf-2 pathway, in words” value is reported as “do not activate” and the “Nrf-2 Assay” value was “Inactive”. Moreover, the “activity in RSL3 assay” value in assay [6] is recorded as “active; also recorded: able to prevent ferroptotic cell death”.
`CC1=C(C)C(=O)C(CC[C@@](C)(O)CC/C=C(\C)CCC=C(F)F)=C(C)C1=O` [Compound L, (S,E)-2-(11,11-difluoro-3-hydroxy-3,7-dimethylundeca-6,10-dien-1-yl)-3,5,6-trimethylcyclohexa-2,5-diene-1,4-dione]: the “activity in LO-15 assay, in words” value in assay [1] was “active; also recorded: effective inhibitors”. Moreover, the “Rotenone Oxygraph Assay % Increase” value in assay [2] was 58.6 +/− 15.5%. The “activity in BSO assay” value in assay [3] is reported as “able to prevent ferroptotic cell death; also recorded: active”. Besides, in assay [4], the “activity in both the BSO Assay and the Rotenone ATP Assay, in words” value was “possess both activities”; the “Complex I by-pass activity / restoring ATP production, in words” value is reported as “active”. Further, in assay [5], the “activation of Nrf-2 pathway, in words” value is on record as “do not activate” and the “Nrf-2 Assay” value is given as “Inactive”. The “activity in RSL3 assay” value in assay [6] is “active; also recorded: able to prevent ferroptotic cell death”.
